Results from ChEMBL document CHEMBL1201862, “PubChem BioAssay data set” (2004).
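These data come from cells grown in 96-well plates and exposed to compound for 48 hours at five concentrations. GI50: concentration for 50% inhibition of growth.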 Active and inactive are the calls of the source. Rule as the data show it: active = GI50 up to about 1.1 µM and inactive = higher.

How the values were obtained:
Assay in all cases: DTP human tumour cell line panel, 48 h
[1] = system: NCI/ADR-RES
[2] = system: SR
[3] = system: OVCAR-3
[4] = system: HOP-62
[5] = system: NCI-H226
[6] = system: KM12
[7] = system: HT-29
[8] = system: MCF7
[9] = system: NCI-H460
[10] = system: MDA-N
[11] = system: SNB-19
[12] = system: SN12C
[13] = system: OVCAR-8
[14] = system: DU-145
[15] = system: SK-MEL-28
[16] = system: NCI-H23
[17] = system: SK-MEL-5
[18] = system: CAKI-1
[19] = system: UACC-257
[20] = system: COLO 205
[21] = system: 786-0
[22] = system: SF-268
[23] = system: LOX IMVI
[24] = system: ACHN
[25] = system: HCC 2998
[26] = system: BT-549
[27] = system: U-251
[28] = system: HCT-116
[29] = system: T47D
[30] = system: A549
[31] = system: EKVX
[32] = system: HCT-15
[33] = system: HOP-92
[34] = system: MOLT-4
[35] = system: SNB-75
[36] = system: UO-31
[37] = system: K562
[38] = system: MDA-MB-435
[39] = system: HL-60
[40] = system: A498
[41] = system: SK-MEL-2
[42] = system: CCRF-CEM
[43] = system: Malme-3M
[44] = system: SW-620
[45] = system: UACC-62
[46] = system: TK-10
[47] = system: OVCAR-5
[48] = system: SF-295
[49] = system: PC-3
[50] = system: RXF 393
[51] = system: NCI-H522
[52] = system: MDA-MB-231
[53] = system: OVCAR-4
[54] = system: IGROV-1
[55] = system: SF-539
[56] = system: M14
[57] = system: SK-OV-3
[58] = system: RPMI-8226
[59] = system: Hs-578T

## N#CC12CNCC1CN=N2 (configuration not stated)
[1]
  GI50: > 100 µM (inactive)
[2]
  GI50: > 100 µM (inactive)
[3]
  GI50: > 100 µM (inactive)
[4]
  GI50: > 100 µM (inactive)
[5]
  GI50: > 100 µM (inactive)
[6]
  GI50: > 100 µM (inactive)
[7]
  GI50: > 100 µM (inactive)
[8]
  GI50: > 100 µM (inactive)
[9]
  GI50: > 100 µM (inactive)
[10]
  GI50: > 100 µM (inactive)
[11]
  GI50: > 100 µM (inactive)
[12]
  GI50: > 100 µM (inactive)
[13]
  GI50: > 100 µM (inactive)
[14]
  GI50: > 100 µM (inactive)
[15]
  GI50: > 100 µM (inactive)
[16]
  GI50: > 100 µM (inactive)
[17]
  GI50: > 100 µM (inactive)
[18]
  GI50: > 100 µM (inactive)
[19]
  GI50: > 100 µM (inactive)
[20]
  GI50: > 100 µM (inactive)
[21]
  GI50: > 100 µM (inactive)
[22]
  GI50: > 100 µM (inactive)
[23]
  GI50: > 100 µM (inactive)
[24]
  GI50: > 100 µM (inactive)
[25]
  GI50: > 100 µM (inactive)
[26]
  GI50: > 100 µM (inactive)
[27]
  GI50: > 100 µM (inactive)
[28]
  GI50: > 100 µM (inactive)
[29]
  GI50: > 100 µM (inactive)
[30]
  GI50: > 100 µM (inactive)
[31]
  GI50: > 100 µM (inactive)
[32]
  GI50: > 100 µM
[33]
  GI50: > 100 µM (inactive)
[34]
  GI50: > 100 µM (inactive)
[35]
  GI50: > 100 µM (inactive)
[36]
  GI50: > 100 µM (inactive)
[37]
  GI50: > 100 µM (inactive)
[38]
  GI50: > 100 µM (inactive)
[39]
  GI50: > 100 µM (inactive)
[40]
  GI50: > 100 µM (inactive)
[41]
  GI50: > 100 µM (inactive)
[42]
  GI50: > 100 µM (inactive)
[43]
  GI50: > 100 µM (inactive)
[44]
  GI50: > 100 µM (inactive)
[45]
  GI50: > 100 µM (inactive)
[46]
  GI50: > 100 µM (inactive)
[47]
  GI50: > 100 µM (inactive)
[48]
  GI50: > 100 µM (inactive)
[49]
  GI50: > 100 µM (inactive)
[50]
  GI50: > 100 µM (inactive)
[51]
  GI50: > 100 µM (inactive)
[52]
  GI50: > 100 µM (inactive)
[53]
  GI50: > 100 µM (inactive)
[54]
  GI50: > 100 µM (inactive)

## O=C1/C(=C/c2cccc([N+](=O)[O-])c2)Sc2scc(-c3ccc([N+](=O)[O-])cc3)[n+]21
[1]
  GI50: 19 µM (inactive)
[3]
  GI50: 31.6 µM (inactive)
[4]
  GI50: 16.6 µM (inactive)
[5]
  GI50: 26.3 µM (inactive)
[6]
  GI50: 15.2 µM (inactive)
[7]
  GI50: 17.4 µM (inactive)
[8]
  GI50: 24.7 µM (inactive)
[9]
  GI50: 11.4 µM (inactive)
[10]
  GI50: 24.5 µM (inactive)
[11]
  GI50: 18.9 µM (inactive)
[12]
  GI50: 18.3 µM (inactive)
[13]
  GI50: 31.6 µM (inactive)
[14]
  GI50: 35.2 µM (inactive)
[15]
  GI50: 25.5 µM (inactive)
[16]
  GI50: 15.2 µM (inactive)
[17]
  GI50: 27.7 µM (inactive)
[18]
  GI50: 20.6 µM (inactive)
[19]
  GI50: 21.8 µM (inactive)
[20]
  GI50: 36.7 µM (inactive)
[21]
  GI50: 16.4 µM (inactive)
[55]
  GI50: 23.8 µM (inactive)
[23]
  GI50: 18.5 µM (inactive)
[24]
  GI50: 19.8 µM (inactive)
[25]
  GI50: 16.4 µM (inactive)
[26]
  GI50: 11.6 µM (inactive)
[27]
  GI50: 27.2 µM (inactive)
[28]
  GI50: 16 µM (inactive)
[56]
  GI50: 60.8 µM (inactive)
[29]
  GI50: 44.9 µM (inactive)
[30]
  GI50: 29.6 µM (inactive)
[31]
  GI50: 18.4 µM (inactive)
[57]
  GI50: 69.5 µM (inactive)
[32]
  GI50: 14.5 µM
[33]
  GI50: 24.5 µM (inactive)
[34]
  GI50: 21.1 µM (inactive)
[35]
  GI50: 11 µM (inactive)
[36]
  GI50: 11.3 µM (inactive)
[38]
  GI50: 16.9 µM (inactive)
[41]
  GI50: 20.2 µM (inactive)
[44]
  GI50: 30 µM (inactive)
[45]
  GI50: 18.7 µM (inactive)
[47]
  GI50: 24.5 µM (inactive)
[48]
  GI50: 14.8 µM (inactive)
[49]
  GI50: 30.7 µM (inactive)
[52]
  GI50: 21.9 µM (inactive)
[53]
  GI50: 30.4 µM (inactive)
[54]
  GI50: 18.6 µM (inactive)

## CCC1=C(c2ccc(OC)cc2)CC[C@@]2(CCNC2=O)[C@@H]1C
[1]
  GI50: > 74.1 µM (inactive)
[2]
  GI50: 24.7 µM (inactive)
[3]
  GI50: > 100 µM (inactive)
[4]
  GI50: > 100 µM (inactive)
[5]
  GI50: > 100 µM (inactive)
[6]
  GI50: > 94.2 µM (inactive)
[7]
  GI50: > 67.6 µM (inactive)
[8]
  GI50: 70.8 µM (inactive)
[9]
  GI50: > 100 µM (inactive)
[10]
  GI50: > 93.1 µM (inactive)
[11]
  GI50: > 100 µM (inactive)
[12]
  GI50: > 100 µM (inactive)
[58]
  GI50: > 46.1 µM (inactive)
[13]
  GI50: > 100 µM (inactive)
[59]
  GI50: > 52.2 µM (inactive)
[14]
  GI50: > 100 µM (inactive)
[15]
  GI50: > 100 µM (inactive)
[16]
  GI50: > 43.2 µM (inactive)
[17]
  GI50: 22.1 µM (inactive)
[18]
  GI50: > 100 µM (inactive)
[19]
  GI50: 28.2 µM (inactive)
[20]
  GI50: > 63.4 µM (inactive)
[21]
  GI50: > 100 µM (inactive)
[55]
  GI50: > 100 µM (inactive)
[22]
  GI50: > 100 µM (inactive)
[23]
  GI50: > 75 µM (inactive)
[24]
  GI50: > 89.7 µM (inactive)
[25]
  GI50: > 100 µM (inactive)
[27]
  GI50: > 100 µM (inactive)
[28]
  GI50: 76.2 µM (inactive)
[56]
  GI50: > 100 µM (inactive)
[29]
  GI50: > 50.7 µM (inactive)
[30]
  GI50: > 100 µM (inactive)
[31]
  GI50: 59.4 µM (inactive)
[57]
  GI50: > 100 µM (inactive)
[32]
  GI50: > 100 µM
[33]
  GI50: > 100 µM (inactive)
[34]
  GI50: 24.9 µM (inactive)
[35]
  GI50: > 73.8 µM (inactive)
[36]
  GI50: > 96.2 µM (inactive)
[37]
  GI50: 26.5 µM (inactive)
[38]
  GI50: > 61.4 µM (inactive)
[40]
  GI50: > 100 µM (inactive)
[41]
  GI50: > 90.8 µM (inactive)
[42]
  GI50: 57.7 µM (inactive)
[43]
  GI50: 58.7 µM (inactive)
[44]
  GI50: > 100 µM (inactive)
[45]
  GI50: > 100 µM (inactive)
[46]
  GI50: > 100 µM (inactive)
[47]
  GI50: > 100 µM (inactive)
[48]
  GI50: > 55.2 µM (inactive)
[49]
  GI50: > 78.2 µM (inactive)
[51]
  GI50: 32.4 µM (inactive)
[52]
  GI50: > 100 µM (inactive)
[53]
  GI50: > 100 µM (inactive)
[54]
  GI50: > 100 µM (inactive)
